Measurements as given in ChEMBL document CHEMBL5053530, “Neopetrosidines A-D, pyridine alkaloids isolated from the marine sponge Neopetrosia chaliniformis and their cell cycle elongation activity” (Bioorg Med Chem, 2021).
Activity calls are given as the source filed them. No cut-off for these calls is given here.

Tests used:
HeLa/Fucci2 [1] = experiment: Cytotoxicity against human HeLa/Fucci2 cells assessed as reduction in cell growth measured after 3 days by MTT assay; format: functional, cell-based; conditions: HeLa/Fucci2, 72 h
[2] = Effect on glycolysis in human HeLa/Fucci2 cells assessed as increase in lactate production per ug protein at 0.1 uM incubated for 24 hrs by LDH Assay (reference value: 19.6 +/- 6.2 nmol); format: functional
[3] = Induction of cell cycle duration in human HeLa/Fucci2 cells assessed as increase in G1 phase duration at 5 uM measured every 20 mins for 96 hrs by time-lapse imaging analysis (reference value: 5 +/- 0.8 hrs); format: functional
[4] = Induction of cell cycle duration in human HeLa/Fucci2 cells assessed as increase in G1/S phase duration at 5 uM measured every 20 mins for 96 hrs by time-lapse imaging analysis (reference value: 4.8 +/- 0.3 hrs); format: functional
[5] = Induction of cell cycle duration in human HeLa/Fucci2 cells assessed as increase in S/G2/M phase duration at 5 uM measured every 20 mins for 96 hrs by time-lapse imaging analysis (reference value: 7.1 +/- 0.7 hrs); format: functional
HeLa/Fucci2 [6] = experiment: Antiproliferative activity against human HeLa/Fucci2 cells assessed as reduction in cell viability incubated for 48 hrs under glucose-limiting condition by LDH assay; format: functional, cell-based
HeLa/Fucci2 [7] = experiment: Antiproliferative activity against human HeLa/Fucci2 cells reduction in cellular ATP production incubated for 4 hrs by CellTiter-Glo cell viability assay; format: functional, cell-based; conditions: dose 1.3-5 µM
[8] = Effect on glycolysis in human HeLa/Fucci2 cells assessed as increase in lactate production per ug protein at 5 uM incubated for 24 hrs by LDH Assay (reference value: 19.6 +/- 6.2 nmol); format: functional
HeLa = experiment: Induction of mitochondria membrane potential loss in human HeLa cells at 5 uM measured after 1 hr by JC1 dye based fluorescence microscopic analysis; format: functional, cell-based
HeLa/Fucci2 [9] = experiment: Induction of cell cycle duration in human HeLa/Fucci2 cells assessed as increase in G1 phase duration measured every 20 mins for 96 hrs by time-lapse imaging analysis; format: functional, cell-based; conditions: dose 1.25-10 µM
HeLa/Fucci2 [10] = experiment: Induction of cell cycle duration in human HeLa/Fucci2 cells assessed as increase in G1/S phase duration measured every 20 mins for 96 hrs by time-lapse imaging analysis; format: functional, cell-based; conditions: dose 1.25-10 µM
HeLa/Fucci2 [11] = experiment: Induction of cell cycle duration in human HeLa/Fucci2 cells assessed as increase in S/G2/M phase duration measured every 20 mins for 96 hrs by time-lapse imaging analysis; format: functional, cell-based; conditions: dose […]

SMILES: C1=C\CCCCCC[n+]2cccc(c2)CCCCCC/C=C\CCCCCC[n+]2cccc(c2)CCCCCC/1
- IC50 (HeLa/Fucci2 [1]): 2400 nM

SMILES: C=C(C)[C@H]1Cc2c(ccc3c2O[C@@H]2COc4cc(OC)c(OC)cc4[C@@H]2C3=O)O1 [ROTENONE]
- Activity [2]: 34.5 nmol

SMILES: C1=C\CCCCCCc2ccc[n+](c2)CCCCCC/C=C\CCCCCCc2ccc[n+](c2)CCCCCCCC/1
- IC50 (HeLa/Fucci2 [1]): 2600 nM

SMILES: C1=C\CCCCCC[n+]2cccc(c2)CCCCCC/C=C\CCCCCC[n+]2cccc(c2)CCCCCCCC/1
- IC50 (HeLa/Fucci2 [1]): 2600 nM

SMILES: C1=C\CCCCCC[n+]2cccc(c2)CCCCCCCCCCCCCC[n+]2cccc(c2)CCCCCC/1.O=C[O-].O=C[O-]
- IC50 (HeLa/Fucci2 [1]): 1200 nM
- Time [3]: 12 h
- Time [4]: 9.3 h
- Time [5]: 14.7 h
- Activity (HeLa/Fucci2 [6]): Active
- Activity (HeLa/Fucci2 [7]): Dose-dependent effect
- Activity [8]: 27.9 nmol
- Activity (HeLa): Active
- Activity (HeLa/Fucci2 [9]): Dose-dependent effect
- Activity (HeLa/Fucci2 [10]): Dose-dependent effect
- Activity (HeLa/Fucci2 [11]): Dose-dependent effect
